Marks after values point to notes of the source that are not given here. Where a SMILES comes first, the peptide text is derived from it. Bridges are numbered along the chain shown (N, C = ends). [ ]: non-standard residue; d: D form.
What was measured:
[1] = Light scattering aggregation kinetics; assay type: physicochemical
Protocol: Light scattering was used to monitor the aggregation of peptide PHB4. The measurements were performed on a Shimadzu™ RF-5301PC (Shimadzu, Japan) spectrofluorimeter, acquiring data with the software provided by the instrument manufacturer. The wavelengths of the incident light beam (excitation) and the detector (emission) were set to 320 nm, using excitation and emission apertures of 5 nm. The scattering of light due to the peptide was calculated by subtracting, from the intensity of the light dispersed by the peptide, the intensity of the light dispersed by a solution without peptide (blank). Variations on light scattering due to the dissolution of the peptide in PBS were studied by acquiring data in time course mode, with a measurement frequency of 1 or 2 per second. The solutions of PHB4 in PBS were prepared by mixing one part of a solution of the peptide in water with one part of a PBS 2X solution.

DENV3 = assay: In vivo protection assay, intracranial challenge, DENV3; design: species or system Balb/c mice; conditions: 30 μg peptide, morbidity evaluated instead of lethality
Protocol: (§1) An experiment was set up to evaluate the in vivo antiviral activity of peptide PHB4 and compare it to that of peptide HDIII3CL. For this purpose, groups of 12 adult Balb/c mice (20 g average body weight) were anesthetized by ether inhalation and inoculated intracranially with 20 μL of viral preparations containing 10 times the median lethal dose of this model and the peptide to be evaluated. The animals recovered quickly and already appeared alert five minutes after the treatment, and were monitored afterwards for 21 days. The data were evaluated using the Kaplan-Meier logarithmic rank test.

sLRP1-CIV = biological target: T1, sLRP1-CIV (Homo sapiens, UniProt Q07954); assay: Biacore (SPR) binding to immobilized sLRP1-CIV; conditions: peptides at 20 μM
T1 construct: purchased R&D Systems, USA
Protocol: The interaction of the beta hairpin peptides with soluble fragments of the LRP1 receptor was studied by Surface Plasmon Resonance (SPR), using a Biacore X unit. In this technique, one of the interaction partners to be studied is immobilized on the surface of a chip, and the other interaction partner is dissolved in a solution that runs through the measurement cell on top of the interaction surface, under conditions of controlled flow. The association and dissociation of interacting partners is measured in resonance units (RU) and plotted, as a function of time, on charts known as ‘sensorgrams’. SPR, therefore, enables the experimenter to obtain detailed information about the interaction without having to label either interaction partner.
In this example, one channel of a CM5 chip (GE Healthcare, USA) was used to immobilize protein sLRP1-CIV on its surface at high density (see Table 6) and recombinant Human Serum Albumin (rHSA, Sigma-Aldrich, USA) was immobilized on the other channel.
Although it was decided to immobilize sLRP1-CIV at high density because these conditions make easier the detection of any potential interactions with compounds whose molecular weight is lower than that of average proteins (such as the peptides this experiment is intended to study), it must be stressed that in high-density surfaces, mass transfer limitations and the possibility of multivalent binding make difficult the accurate determination of kinetic constants. Therefore, and in order to characterize in greater detail the sLRP1-CIV binding surface, different RAP dilutions (0.6-20 μM) were loaded, and RU were registered under conditions of interaction equilibria (250 sec, see FIG. 13B). […] The data also indicate that immobilized sLRP1-CIV faithfully reproduces the previously reported characteristics of the LRP1-RAP interaction.
The binding of beta hairpin peptides to sLRP1-CIV was studied by loading 20 μM dilutions in running buffer of the different peptide variants onto the sLRP1-CIV chip characterized above. The high strength of the resulting signals is consistent with the binding of aggregated, rather than monomeric forms of the peptides. Therefore, the observed variations between different peptides may reflect either differences in the affinity of unitary peptide interactions or differences in aggregation numbers and/or geometries that lead to variations in the number of peptide units able to simultaneously engage immobilized sLRP1-CIV molecules in a multivalent manner. […] The difference between peptides HDIII3CL2 and HDIII3CL is that the former has an additional C-terminal lysine and has, therefore, a stronger cationic character, which may facilitate additional electrostatic interactions with the negatively charged LRP1 receptor.

DENV1 = assay: In vivo protection assay, intracranial challenge, DENV1; design: species or system Balb/c mice; conditions: 30 μg peptide inoculated intracranially with 10 median lethal doses, 21 days
Protocol: as §1

[2] = Transmission electron microscopy of aggregate morphology; assay type: physicochemical
Protocol: In order to analyze the morphology of the aggregates formed by peptide PHB4, peptide solutions were subjected to different experimental treatments where conditions such as temperature, incubation time and the presence of electrolytes were manipulated to facilitate aggregation (FIG. 10). For this particular study, two peptide solutions (2 mg/mL, 0.73 mM) were prepared, one in water and another in PBS. A sample was then taken from each, directly fixed on the grids and observed under the microscope (T0 samples). The remainder was incubated for 1 hour at 50° C. and then samples were taken and fixed immediately (T1 samples). The remainder was then incubated for an additional 2 hours at room temperature, and then fixed (T2 samples).

CC[C@H](C)[C@@H]1NC(=O)[C@H](Cc2ccccc2)NC(=O)[C@H](Cc2c[nH]c3ccccc23)NC(=O)[C@H](CC(N)=O)NC(=O)[C@H](C(C)C)NC(=O)[C@H](CCCCN)NC(=O)[C@H](Cc2c[nH]c3ccccc23)NC(=O)[C@H](CCCCN)NC(=O)[C@H]2CCCN2C(=O)[C@H](CCCNC(=N)N)NC(=O)[C@H]([C@@H](C)O)NC(=O)[C@H](Cc2c[nH]c3ccccc23)NC(=O)[C@H](Cc2ccc(O)cc2)NC(=O)[C@H](C(C)C)NC(=O)[C@H](CCC(=O)O)NC(=O)[C@H]([C@@H](C)CC)NC(=O)[C@@H](N)CSSC[C@@H](C(=O)N[C@@H](CCCCN)C(=O)N[C@@H](CCCCN)C(=O)N[C@@H](CCCCN)C(N)=O)NC1=O [PHB4] (H-CIEVYWTR[dP]KWKVNWFICKKK-NH2; disulfide 1-18; N-terminus assumed)
Maximum of ratio of dispersed light relative to time zero ([1]; 5 μM peptide in PBS): 11
Maximum of ratio of dispersed light relative to time zero ([1]; 10 μM peptide in PBS): 7
Latency period before increase of dispersed light ([1]; dissolved into PBS): < 2 min
Protection (%) DENV3 (DENV3): 100*** %
Binding to sLRP1-CIV by SPR, in words (sLRP1-CIV): strongest binding
Protection (%) DENV1 (DENV1): 100*** %
Size of protofibril/fibril-type filamentous structures ([2]; 2 mg/mL in water, after 50° C. treatment): 5-10 nm
Diameter of particulates ([2]; 2 mg/mL in water, room temperature): 5-20 nm
Size of filamentous structures ([2]; 2 mg/mL, immediately after dissolving in PBS): 5-20 nm

Reference: US9896482B2, “Beta hairpin peptides having antiviral properties against Dengue virus” (CENTRO DE INGENIERÍA GENÉTICA Y BIOTECNOLOGÍA, priority 2014, dated 2018)
